Test results from patent US10799552B2, “Methods for treating diabetic neurotherapy” (Massachusetts Eye and Ear Infirmary, priority 2011, dated 2020).
Peptide text beside a SMILES is read from it. * marks the point of attachment. Cbz = O=C(OCc1ccccc1)*; CH2F = FC*

System: optic nerve axons of retinal ganglion cells
Assay: Axon regeneration after optic nerve crush injury (βIII-tubulin staining of optic nerve sections)
Format: in vivo, mouse
Conditions: intravitreal, ZVAD 300 μM and/or Nec-1 4 mM; 14 days after optic nerve injury; FIGS. 3B-3E
Experimental: Intravitreal injections were performed as follows. Briefly, the tip of a 33 gauge needle (Hamilton, Reno, Nev.) was carefully inserted through the sclera into the intravitreal space to reduce intraocular pressure. Then, the needle was extracted, loaded with compounds and tangentially reinserted through the sclera into the intravitreal space, inducing a self-sealing wound tunnel. After injection, the absence of choroidal bleeding was confirmed. At specified times after injury, mice were sacrificed with an overdose of sodium pentobarbital, and eyes were enucleated.
To investigate the efficacy of necrosis inhibitor and pan-caspase inhibitor in promoting axon regeneration, eight-weeks-old mice were subjected to optic nerve crush surgery as previously described. […]
Axon regeneration was assessed by obtaining longitudinal sections of the optic nerve and counting the number of axons at pre-specified distances from the injury site. […] Axons were counted manually in at least eight longitudinal sections per case at pre-specified distances from the injury site. The number of regenerating axons at various di stances are determined as described previously (Leon et al., (2000) J NEUROSCI 20: 4615-4626). […]

Row | Structure (SMILES) | axon regeneration (axon staining beyond injury site)
1 | CN1C(=O)NC(Cc2c[nH]c3c(Cl)cccc23)C1=O (centres unmarked) [Nec-1] | minimal effects on axon regeneration
2 | COC(=O)CC(NC(=O)C(C)NC(=O)C(NC(=O)OCc1ccccc1)C(C)C)C(=O)CF (stereo not drawn) [ZVAD, Benzyloxycarbonyl-Val-Ala-Asp(OMe)-fluoromethylketone] (Cbz-Val-Ala-Asp(OMe)-CH2F; configuration not given here) | minimal effects on axon regeneration
